Peptide text beside a SMILES is read from it. * marks the point of attachment. Cbz = O=C(OCc1ccccc1)*
How the values were obtained:
[1] = system: proteasome; experiment: Proteasome inhibition after NQO1 siRNA knockdown in T24 cells, Western blot; format: cell-based, human; settings: NQO1 siRNA 24 h then MG-132 6 h, FIG. 6C
Experimental: Cell culture and Western blots. Cells were cultured in appropriate media (DMEM+1% p/s+10% FBS) and subcultured as necessary. Tissue homogenates were prepared by removing whole bladders from freshly-sacrificed mice killed with isoflurane inhalation and lysing tissue as a 10% homogenate in ice-cold RIPA buffer (50 mM Tris-Cl, pH 7.4, 150 mM NaCl, 1% NP-40, 1 mM EDTA, 0.5% Na Deoxycholate, and 1% Triton X100 with 1 mM PMSF and 1× Protease Inhibitor Cocktail (Complete, Roche)) using glass and Teflon pestle system, and further clarified via centrifugation at 14000 rpm at 4 degrees for 10 minutes. Homogenates were stored at −80° C. until use. Western blotting was performed essentially according to Towbin H, T. Staehelin, J. Gordon, “Electrophoretic transfer of proteins from polyacrylamide gels to nitrocellulose sheets: procedure and some applications,” Proc Natl Acad Sci USA, v76, pp 4350-4354, 1979.
(§1) FIG. 6A through FIG. 6E are Western blot images that illustrate example NQO1 regulation of energy metabolic regulator factor PGC1α in a bladder of a mouse model for PBS compared to wild-type mouse, according to an embodiment. FIG. 6A is a set of Western blot images that illustrate example relative occurrence of proteins in bladders from wild type mice (left) and NQO1−/− mice (right). Bladders from wild type and NQO1−/− mice were immunoblotted and probed with antibodies as indicated: for NQO1 in blot image 601; for AMPK in blot image 603; for CREB in blot image 605; and, for control GAPDH in blot image 607. FIG. 6B is a set of Western blot images that illustrate example relative occurrence of proteins in T24 human bladder carcinoma cells transfected with control (column C, 100 nM control siRNA) or NQO1-specific siRNA (columns 10, 50 and 150 nM NQO1 siRNA) for 24 h and then immunoblotted with indicated antibodies: for NQO1 in blot image 611; for CREB in blot image 613; for AMPK in blot image 615; for PGC1α in blot image 617; and, for control GAPDH in blot image 619. […]

[2] = system: wild-type and NQO1−/− bladder cells; experiment: Ex vivo bladder cell culture, B[α]P-induced ROS (DCF fluorescence); format: cell-based, mouse
Experimental: Ex-vivo cell culture and chemical treatment. Whole bladders from age-matched female wild-type and NQO1−/− 24 weeks-old mice were excised from euthanized mice and minced in a 10 cm dish with a razorblade. Pieces were suspended in microfuge tubes containing 500 microliters of 1% […] reconstituted in PBS and incubated at 37 degrees with 700 rpm shaking for 45 minutes to dissociate cells from tissue. Tubes were centrifuged at 500 g for 3 minutes to pellet cells, and resuspended in full cell culture media. Cells were plated in 8-well tissue culture chamber slides (e.g., from LAB-TEK™) with cells from one bladder equally divided into one 8-well slide, into 1 mL media total volume. After 2-4 days of growth with daily media changes, cells were treated with various concentrations of benzopyrene dissolved in acetone, or acetone control in fresh media for 18 h, followed by removal and addition of DCF (SIGMA ALDRICH™) at 5 micromolar for 1 h. DCF was then removed and full media added for 1 h, followed by immediate mounting of cover slips in VectaShield (VECTOR LABS™ of Burlingame, Calif.) and viewing under FITC-viewing filter to determine fluorescence of ROS-modified DCF within cells. […]

[3] = system: NQO1 and 20S proteasome interaction with CREB and AMPK in T24; experiment: Immunoprecipitation of CREB and AMPK from T24 cells incubated with B[α]P; format: cell-based, human; settings: B[α]P 0, 10 and 100 nM, 16 h
Experimental: Immunoprecipitation. Human bladder carcinoma T24 cell line was cultured in DMEM+10% FBS+1% p/s at 37 degrees in 5% carbon dioxide before IP studies. Cells were incubated with chemicals as necessary and washed 3× in PBS on ice. Cells were scraped into microfuge tubes using RIPA buffer and protein A/G beads (SANTA CRUZ BIOTECH™ of Santa Cruz, Calif.) were equilibrated with 1 mg aliquots for 1 h. After equilibration, beads were removed and lysates were incubated o/n with 1:100 of relevant antibodies, and next day incubated with 30 microliters A/G beads for 1 h before 3× RIPA buffer wash and boiling 5 mins.
as §1, with “619. FIG. 6C is a set of Western blot images that illustrate example relative occurrence of proteins in T24 human bladder carcinoma cells transfected with control (column C, 100 nM control siRNA) or NQO1-specific siRNA (columns 50 and 100 nM NQO1 siRNA) for 24 h and then incubated for 6 h with vehicle (signified by -) or proteasome inhibitor MG-132 (signified by +) before lysis and separation via SDS-PAGE. The samples were probed with the antibodies indicated: for NQO1 in blot image 621; for CREB in blot image 623; for AMPK in blot image 625; for PGC1α in blot image 627; and, for control GAPDH in blot image 629. FIG. 6D and FIG. 6E are sets of Western blot images that illustrate example relative occurrence of proteins in T24 cells that were incubated for 16 h with B[α]P at concentrations of 0, 10 and 100 nanoMoles (nM, 1 nM=10^−9 Moles) and then immunoprecipitated with antibodies against CREB (in FIG. 6D) and AMPK (in FIG. 6E) overnight. IgG was used as immunoprecipitation control.” for “619.”

## CC(C)C[C@@H](C=O)NC(=O)[C@H](CC(C)C)NC(=O)[C@H](CC(C)C)NC(=O)OCc1ccccc1 [MG-132] (Cbz-Leu-Leu-Leu-aldehyde)
[1]
  rescue of AMPK protein from down regulation: rescued from down regulation
  rescue of CREB protein from down regulation: rescued from down regulation
  rescue of PGC1α protein from down regulation: not PGC1α proteins were rescued from down regulation

## benzo[α]pyrene [B[α]P]
[2]; 100 μM B[α]P, 18 h, cells from 24 week-old female mice, NQO1−/− vs wild-type, P<0.05, FIG. 3C
  stress signaling (count of ROS-positive, DCF-positive cells normalized to wild-type): significantly stronger stress than does wild-type
[2]; NQO1−/− bladder cells relative to wild-type bladder cells, ex vivo
  susceptibility to B[α]P-induced generation of reactive oxygen species (ROS): markedly increased susceptibility
[3]; FIG. 6D
  20S proteasome interaction with CREB: more or less did not change
  NQO1 interaction with CREB: appears to be increased during stress conditions
[3]; FIG. 6E
  20S proteasome interaction with AMPK: more or less did not change
  NQO1 interaction with AMPK: appears to be increased during stress conditions

Reference: patent US20120208767A1, “Method to Detect or Treat Painful Bladder Syndrome based on Relation to Quinone Oxidoreductase 1” (University of Maryland, Baltimore, priority 2011, published 2012)
